Usually Ki stands for a dissociation constant, usually derived from enzyme kinetics or from competition with a known ligand.

Positions of bridges follow the written chain, without caps; N, C: chain ends. Non-standard residues stand in square brackets, D forms with d. Residues, ends and D or L forms follow the SMILES beside them. Gly(1-adamantyl) = N[C@H](C(=O)O)C12CC3CC(CC(C3)C1)C2; R8 = C=CCCCCCC[C@@](C)(N)C(=O)O; Cit = NC(=O)NCCC[C@H](N)C(=O)O; αMeL = CC(C)C[C@](C)(N)C(=O)O; S5 = C=CCCC[C@](C)(N)C(=O)O

In one assay the target is Bcl-xL (Homo sapiens, UniProt Q07817). Nature of the assay: Ki determination for Bcl-xL (BCL-2 family binding spectrum). The note with it: read-out: Ki BCL-XL. The essentials: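 Competitive fluorescence polarization: compounds (1 nM–1 mM) with 25 nM fluoresceinated peptidomimetic macrocycle and 50 nM protein in 140 mM NaCl, 50 mM Tris-HCl pH 7.4, 30 min at room temperature. Constants from nonlinear regression.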

Another assay concerns the target Bcl-2 (Homo sapiens, UniProt P10415). Nature of the assay: Ki determination for Bcl-2 (BCL-2 family binding spectrum). The conditions noted are these: read-out: Ki BCL-2. The text has this:
To assess the binding and affinity of compounds that antagonize the interaction between a peptide and an acceptor protein, a fluorescence polarization assay (FPA) utilizing a fluoresceinated peptidomimetic macrocycle derived from a peptidomimetic precursor sequence is used, for example. The FPA technique measures the molecular orientation and mobility using polarized light and fluorescent tracer. […] A compound that antagonizes the interaction between the fluoresceinated peptidomimetic macrocycle and an acceptor protein will be detected in a competitive binding FPA experiment.
For example, putative antagonist compounds (1 nM to 1 mM) and a fluoresceinated peptidomimetic macrocycle (25 nM) are incubated with the acceptor protein (50 nM) in binding buffer (140 mM NaCl, 50 mM Tris-HCL, pH 7.4) for 30 minutes at room temperature. Antagonist binding activity is measured, for example, by fluorescence polarization on a luminescence spectrophotometer (e.g. Perkin-Elmer LS50B). Kd values may be determined by nonlinear regression analysis using, for example, Graphpad Prism software (GraphPad Software, Inc., San Diego, Calif.).

The target of a further assay is Mcl-1 (Homo sapiens, UniProt Q07820). In words: Ki determination for Mcl-1 (BCL-2 family binding spectrum). The conditions noted are these: read-out: Ki MCL-1. Summed up: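 Binding to Mcl-1 was measured as displacement of a fluorescein-labelled macrocyclic peptidomimetic, read by fluorescence polarization. Constants were fitted by nonlinear regression.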
Mcl-1, sequence (Q07820 whole entry, species assumed): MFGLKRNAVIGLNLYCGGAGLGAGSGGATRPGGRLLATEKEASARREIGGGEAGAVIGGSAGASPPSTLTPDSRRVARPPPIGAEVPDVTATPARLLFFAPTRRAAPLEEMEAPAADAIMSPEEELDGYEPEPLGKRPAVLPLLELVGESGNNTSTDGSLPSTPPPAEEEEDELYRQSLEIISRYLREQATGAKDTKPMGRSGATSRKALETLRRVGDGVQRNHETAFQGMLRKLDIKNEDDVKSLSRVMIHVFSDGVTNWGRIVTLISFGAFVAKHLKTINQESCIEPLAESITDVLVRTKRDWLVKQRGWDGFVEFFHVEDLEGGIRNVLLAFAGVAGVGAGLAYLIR

Bcl-2, sequence (P10415 whole entry, species assumed): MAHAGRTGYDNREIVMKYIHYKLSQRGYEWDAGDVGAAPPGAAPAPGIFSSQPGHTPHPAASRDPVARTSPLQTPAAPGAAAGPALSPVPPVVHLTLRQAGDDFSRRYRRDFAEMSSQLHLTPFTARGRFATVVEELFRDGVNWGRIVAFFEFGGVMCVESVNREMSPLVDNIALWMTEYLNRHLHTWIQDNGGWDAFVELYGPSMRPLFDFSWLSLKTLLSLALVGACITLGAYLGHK
Bcl-xL, sequence (Q07817 whole entry, species assumed): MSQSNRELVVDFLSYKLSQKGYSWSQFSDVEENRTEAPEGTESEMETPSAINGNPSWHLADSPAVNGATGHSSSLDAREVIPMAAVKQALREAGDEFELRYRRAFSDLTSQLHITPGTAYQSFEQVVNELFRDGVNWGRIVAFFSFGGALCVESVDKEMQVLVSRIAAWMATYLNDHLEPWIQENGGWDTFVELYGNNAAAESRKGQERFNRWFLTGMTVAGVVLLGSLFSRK

As to `CC[C@H](C)[C@H](NC(C)=O)C(=O)N[C@@H](C)C(=O)N[C@@H](CCC(N)=O)C(=O)N[C@@H](C)C(=O)N[C@@H](CC(C)C)C(=O)N[C@@H](CCCNC(=N)N)C(=O)N[C@]1(C)CCCCCCC=CCCC[C@@](C)(C(=O)N[C@@H](Cc2ccc(O)cc2)C(=O)N[C@@H](C)C(=O)N[C@@H](C)C(N)=O)NC(=O)[C@H](CC(N)=O)NC(=O)[C@H](Cc2ccccc2)NC(=O)[C@H](C)NC(=O)[C@H](CC(=O)O)NC(=O)CNC(=O)[C@H]([C@@H](C)CC)NC1=O` [compound 1632] (Ac-IAQALR[R8]IGDAFN[S5]YAA-NH2; staple 7-14), the Ki at Bcl-xL and at Bcl-2 was over 1000 nM in each case.
Regarding `CC[C@H](C)[C@H](NC(C)=O)C(=O)N[C@@H](C)C(=O)N[C@@H](CCC(N)=O)C(=O)N[C@@H](C)C(=O)N[C@@H](CC(C)C)C(=O)N[C@@H](C)C(=O)N[C@]1(C)CCCCCCC=CCCC[C@@](C)(C(=O)N[C@@H](Cc2ccc(O)cc2)C(=O)N[C@@H](Cc2ccc(O)cc2)C(=O)N[C@@H](C)C(N)=O)NC(=O)[C@H](CC(N)=O)NC(=O)[C@H](Cc2ccccc2)NC(=O)[C@H](C)NC(=O)[C@H](CC(=O)O)NC(=O)CNC(=O)[C@H]([C@@H](C)CC)NC1=O` [compound 1637] (Ac-IAQALA[R8]IGDAFN[S5]YYA-NH2; staple 7-14), the Ki at Bcl-xL and at Bcl-2 was over 1000 nM each time.
For the compound `CC[C@H](C)[C@H](NC(C)=O)C(=O)N[C@@H](C)C(=O)N[C@@H](CCC(N)=O)C(=O)N[C@@H](C)C(=O)N[C@@H](CC(C)C)C(=O)N[C@@H](CCCNC(=N)N)C(=O)N[C@]1(C)CCCCCCC=CCCC[C@@](C)(C(=O)N[C@@H](Cc2ccc(O)cc2)C(=O)N[C@@H](Cc2ccc(O)cc2)C(=O)N[C@@H](C)C(N)=O)NC(=O)[C@H](CC(N)=O)NC(=O)[C@H](C)NC(=O)[C@H](C)NC(=O)[C@H](CC(=O)O)NC(=O)CNC(=O)[C@H]([C@@H](C)CC)NC1=O` [compound 1639] (Ac-IAQALR[R8]IGDAAN[S5]YYA-NH2; staple 7-14), the inhibition constant Ki at Bcl-xL and at Bcl-2 was over 1000 nM each time.
Regarding `CC[C@H](C)[C@H](NC(C)=O)C(=O)N[C@@H](Cc1c[nH]c2ccccc12)C(=O)N[C@H](C(=O)N[C@@H](C)C(=O)N[C@@H](CCC(N)=O)C(=O)N[C@@H](C)C(=O)N[C@@H](CC(C)C)C(=O)N[C@@H](CCCNC(=N)N)C(=O)N[C@]1(C)CCCCCCC=CCCC[C@@](C)(C(=O)N[C@@H](Cc2ccc(O)cc2)C(=O)N[C@@H](Cc2ccc(O)cc2)C(=O)N[C@@H](C)C(N)=O)NC(=O)[C@H](CC(N)=O)NC(=O)[C@H](Cc2ccccc2)NC(=O)[C@H](CCC(N)=O)NC(=O)[C@H](CC(=O)O)NC(=O)CNC(=O)[C@H]([C@@H](C)CC)NC1=O)[C@@H](C)CC` [compound 1650] (Ac-IWIAQALR[R8]IGDQFN[S5]YYA-NH2; staple 9-16), the inhibition constant Ki on Mcl-1 came to 5.2 nM; on Bcl-xL, 12 nM; on Bcl-2 it was 67 nM.
The corresponding values for `CC[C@H](C)[C@H](NC(C)=O)C(=O)N[C@@H](Cc1c[nH]c2ccccc12)C(=O)N[C@H](C(=O)N[C@@H](C)C(=O)N[C@@H](C)C(=O)N[C@@H](C)C(=O)N[C@@H](CC(C)C)C(=O)N[C@@H](CCCNC(=N)N)C(=O)N[C@]1(C)CCCCCCC=CCCC[C@@](C)(C(=O)N[C@@H](Cc2ccc(O)cc2)C(=O)N[C@@H](Cc2ccc(O)cc2)C(=O)N[C@@H](C)C(N)=O)NC(=O)[C@H](CC(N)=O)NC(=O)[C@H](Cc2ccccc2)NC(=O)[C@H](CCC(=O)O)NC(=O)[C@H](CC(=O)O)NC(=O)CNC(=O)[C@H]([C@@H](C)CC)NC1=O)[C@@H](C)CC` [compound 1651] (Ac-IWIAAALR[R8]IGDEFN[S5]YYA-NH2; staple 9-16) are 1 nM, 1 nM and 6 nM.
As for `CC[C@H](C)[C@H](NC(C)=O)C(=O)N[C@@H](Cc1c[nH]c2ccccc12)C(=O)N[C@H](C(=O)N[C@@H](C)C(=O)N[C@@H](C)C(=O)N[C@@H](C)C(=O)N[C@@H](CC(C)C)C(=O)N[C@@H](CCCNC(=N)N)C(=O)N[C@]1(C)CCCCCCC=CCCC[C@@](C)(C(=O)N[C@@H](Cc2ccc(O)cc2)C(=O)N[C@@H](Cc2ccc(O)cc2)C(=O)N[C@@H](C)C(N)=O)NC(=O)[C@H](CC(N)=O)NC(=O)[C@H](Cc2ccccc2)NC(=O)[C@H](CCC(N)=O)NC(=O)[C@H](CC(=O)O)NC(=O)CNC(=O)[C@H]([C@@H](C)CC)NC1=O)[C@@H](C)CC` [compound 1652] (Ac-IWIAAALR[R8]IGDQFN[S5]YYA-NH2; staple 9-16), the Ki came to 6 nM at Mcl-1, 4 nM on Bcl-xL and 22 nM on Bcl-2.
For `CC[C@H](C)[C@H](NC(C)=O)C(=O)N[C@@H](Cc1c[nH]c2ccccc12)C(=O)N[C@H](C(=O)N[C@@H](C)C(=O)N[C@@H](CCC(N)=O)C(=O)N[C@@H](C)C(=O)N[C@@H](CC(C)C)C(=O)N[C@@H](CCCNC(N)=O)C(=O)N[C@]1(C)CCCCCCC=CCCC[C@@](C)(C(=O)N[C@@H](Cc2ccc(O)cc2)C(=O)N[C@@H](Cc2ccc(O)cc2)C(=O)N[C@@H](C)C(N)=O)NC(=O)[C@H](CC(N)=O)NC(=O)[C@H](Cc2ccccc2)NC(=O)[C@H](CCC(N)=O)NC(=O)[C@H](CC(=O)O)NC(=O)CNC(=O)[C@H]([C@@H](C)CC)NC1=O)[C@@H](C)CC` [compound 1656] (Ac-IWIAQAL[Cit][R8]IGDQFN[S5]YYA-NH2; staple 9-16), in that order: 1.7 nM, 28.8 nM and 88.2 nM.
In the case of `CC[C@H](C)[C@H](NC(C)=O)C(=O)N[C@@H](Cc1c[nH]c2ccccc12)C(=O)N[C@H](C(=O)N[C@@H](C)C(=O)N[C@@H](CCC(N)=O)C(=O)N[C@@H](C)C(=O)N[C@H](C(=O)N[C@@H](CCCNC(=N)N)C(=O)N[C@]1(C)CCCCCC/C=C\CCC[C@@](C)(C(=O)N[C@@H](Cc2ccc(O)cc2)C(=O)N[C@@H](Cc2ccc(O)cc2)C(=O)N[C@@H](C)C(N)=O)NC(=O)[C@H](CC(N)=O)NC(=O)[C@H](Cc2ccccc2)NC(=O)[C@H](C)NC(=O)[C@H](CC(=O)O)NC(=O)CNC(=O)[C@H]([C@@H](C)CC)NC1=O)C12CC3CC(CC(C3)C1)C2)[C@@H](C)CC` [compound 1689] (Ac-IWIAQA[Gly(1-adamantyl)]R[R8]IGDAFN[S5]YYA-NH2; staple (Z) 9-16), the Ki is 110 nM at Bcl-xL and over 1000 nM on Bcl-2.
For `CC[C@H](C)[C@H](NC(C)=O)C(=O)N[C@@H](Cc1c[nH]c2ccccc12)C(=O)N[C@H](C(=O)N[C@@H](Cc1ccccc1)C(=O)N[C@@H](C)C(=O)N[C@@H](C)C(=O)N[C@@H](CC(C)C)C(=O)N[C@@H](CCCNC(=N)N)C(=O)N[C@]1(C)CCCCCCC=CCCC[C@@](C)(C(=O)N[C@@H](Cc2ccc(O)cc2)C(=O)N[C@@H](Cc2ccc(O)cc2)C(=O)N[C@@H](C)C(N)=O)NC(=O)[C@H](CC(N)=O)NC(=O)[C@H](Cc2ccccc2)NC(=O)[C@H](C)NC(=O)[C@H](CC(=O)O)NC(=O)CNC(=O)[C@H]([C@@H](C)CC)NC1=O)[C@@H](C)CC` [compound 1735] (Ac-IWIFAALR[R8]IGDAFN[S5]YYA-NH2; staple 9-16), in that order: 110 nM and 125 nM.
For `CC[C@H](C)[C@H](NC(C)=O)C(=O)N[C@@H](Cc1c[nH]c2ccccc12)C(=O)N[C@H](C(=O)N[C@@H](C)C(=O)N[C@@H](CCC(N)=O)C(=O)N[C@@H](C)C(=O)N[C@@](C)(CC(C)C)C(=O)N[C@@H](CCCNC(=N)N)C(=O)N[C@]1(C)CCCCCCC=CCCC[C@@](C)(C(=O)N[C@@H](Cc2ccc(O)cc2)C(=O)N[C@@H](Cc2ccc(O)cc2)C(=O)N[C@@H](C)C(N)=O)NC(=O)[C@H](CC(N)=O)NC(=O)[C@H](Cc2ccccc2)NC(=O)[C@H](C)NC(=O)[C@H](CC(=O)O)NC(=O)CNC(=O)[C@H]([C@@H](C)CC)NC1=O)[C@@H](C)CC` [compound 1767] (Ac-IWIAQA[αMeL]R[R8]IGDAFN[S5]YYA-NH2; staple 9-16), in that order: over 1000 nM and over 1000 nM.
On to `CC[C@H](C)[C@H](NC(C)=O)C(=O)N[C@@H](Cc1c[nH]c2ccccc12)C(=O)N[C@H](C(=O)N[C@@H](C)C(=O)N[C@@H](CCC(N)=O)C(=O)N[C@@H](C)C(=O)N[C@@H](CC(C)C)C(=O)N[C@@H](CCCNC(N)=O)C(=O)N[C@]1(C)CCCCCCC=CCCC[C@@](C)(C(=O)N[C@@H](Cc2ccc(O)cc2)C(=O)N[C@@H](Cc2ccc(O)cc2)C(=O)N[C@@H](C)C(N)=O)NC(=O)[C@H](CC(N)=O)NC(=O)[C@H](C)NC(=O)[C@H](C)NC(=O)[C@H](CC(=O)O)NC(=O)CNC(=O)[C@H]([C@@H](C)CC)NC1=O)[C@@H](C)CC` [compound 1773] (Ac-IWIAQAL[Cit][R8]IGDAAN[S5]YYA-NH2; staple 9-16), for which the Ki on Bcl-xL and on Bcl-2 was over 1000 nM in each case.
On to `CC[C@H](C)[C@H](NC(C)=O)C(=O)N[C@@H](Cc1c[nH]c2ccccc12)C(=O)N[C@H](C(=O)N[C@@H](C)C(=O)N[C@@H](CCC(N)=O)C(=O)N[C@@H](C)C(=O)N[C@@H](CC(C)C)C(=O)N[C@@H](CCCNC(N)=O)C(=O)N[C@]1(C)CCCCCCC=CCCC[C@@](C)(C(=O)N[C@@H](Cc2ccc(O)cc2)C(=O)N[C@@H](Cc2ccc(O)cc2)C(=O)N[C@@H](C)C(N)=O)NC(=O)[C@H](CC(N)=O)NC(=O)[C@H](C(C)C)NC(=O)[C@H](C)NC(=O)[C@H](CC(=O)O)NC(=O)CNC(=O)[C@H]([C@@H](C)CC)NC1=O)[C@@H](C)CC` [compound 1774] (Ac-IWIAQAL[Cit][R8]IGDAVN[S5]YYA-NH2; staple 9-16), for which the Ki on Bcl-xL and on Bcl-2 was over 1000 nM in each case.
